Drawing on ChEMBL document CHEMBL5321256, “Tolypocaibols: Antibacterial Lipopeptaibols from a Tolypocladium sp. Endophyte of the Marine Macroalga Spongomorpha arcta” (2023), this text covers MIC for 5 compounds.

What all share (type): functional
For one test, the system named is Klebsiella aerogenes. Nature of the test: Antibacterial activity against Klebsiella aerogenes measured after 18 to 20 hrs by broth microdilution method. The conditions noted are these: time 18-20 hrs.
Test [1] relates to Yersinia pseudotuberculosis. The test is described as follows: Antibacterial activity against Yersinia pseudotuberculosis measured after 18 to 20 hrs by broth microdilution method. The conditions noted are these: time 18-20 hrs.
Test [2] concerns Staphylococcus aureus. The test is described as follows: Antibacterial activity against methicillin-resistant Staphylococcus aureus measured after 18 to 20 hrs by broth microdilution method. The conditions noted are these: time 18-20 hrs.
The next test relates to Vibrio cholerae. The test is described as follows: Antibacterial activity against Vibrio cholerae measured after 18 to 20 hrs by broth microdilution method. The conditions noted are these: time 18-20 hrs.
The subject of a further test is Pseudomonas aeruginosa. Nature of the test: Antibacterial activity against Pseudomonas aeruginosa measured after 18 to 20 hrs by broth microdilution method. The conditions noted are these: time 18-20 hrs.
Another test relates to Listeria ivanovii. Nature of the test: Antibacterial activity against Listeria ivanovii ATCC BAA-139 measured after 18 to 20 hrs by broth microdilution method. Particulars: time 18-20 hrs.
The test system of a further test is Escherichia coli. The test is described as follows: Antibacterial activity against Escherichia coli measured after 18 to 20 hrs by broth microdilution method. The conditions noted are these: time 18-20 hrs.
The subject of the next test is Klebsiella pneumoniae. The test is described as follows: Antibacterial activity against Klebsiella pneumoniae measured after 18 to 20 hrs by broth microdilution method. Particulars: time 18-20 hrs.
Test [3] has as its system Providencia alcalifaciens. The test is described as follows: Antibacterial activity against Providencia alcalifaciens measured after 18 to 20 hrs by broth microdilution method. Particulars: time 18-20 hrs.
The test system of a further test is Shigella sonnei. Nature of the test: Antibacterial activity against Shigella sonnei measured after 18 to 20 hrs by broth microdilution method. The conditions noted are these: time 18-20 hrs.
Test [4] has as its system Staphylococcus epidermidis. Nature of the test: Antibacterial activity against Staphylococcus epidermidis measured after 18 to 20 hrs by broth microdilution method. The conditions noted are these: time 18-20 hrs.
Test [5] relates to Staphylococcus aureus. The test is described as follows: Antibacterial activity against methicillin-susceptible Staphylococcus aureus measured after 18 to 20 hrs by broth microdilution method. The conditions noted are these: time 18-20 hrs.
The next test has as its system Bacillus subtilis. Nature of the test: Antibacterial activity against Bacillus subtilis measured after 18 to 20 hrs by broth microdilution method. The conditions noted are these: time 18-20 hrs.
For a further test, the system named is Enterococcus faecium. Nature of the test: Antibacterial activity against Enterococcus faecium measured after 18 to 20 hrs by broth microdilution method. The conditions noted are these: time 18-20 hrs.
The subject of a further test is Enterococcus faecalis. Nature of the test: Antibacterial activity against Enterococcus faecalis measured after 18 to 20 hrs by broth microdilution method. The conditions noted are these: time 18-20 hrs.
The test system of the next test is Brucella anthropi. Nature of the test: Antibacterial activity against Ochrobactrum anthropi measured after 18 to 20 hrs by broth microdilution method. The conditions noted are these: time 18-20 hrs.
Test [6] concerns Mycolicibacterium smegmatis. Nature of the test: Antibacterial activity against Mycobacterium smegmatis ATCC 70084 by resazurin microplate assay.
Test [7] has as its system Mycobacterium tuberculosis. Nature of the test: Antibacterial activity against Mycobacterium tuberculosis ATCC 25177 by resazurin microplate assay.
The test system of the next test is Salmonella enterica. Nature of the test: Antibacterial activity against Salmonella enterica measured after 18 to 20 hrs by broth microdilution method. Particulars: time 18-20 hrs.

SMILES strings stand for the structures. In brackets after ≈: the same amount, converted by molar mass. Square brackets hold non-standard residues; d marks the D form. Peptide text beside a SMILES is read from it. * marks the point of attachment. Pro(4S-Me) = C[C@@H]1CN[C@H](C(=O)O)C1; Decanoyl = CCCCCCCCCC(=O)*; Valol = CC(C)[C@@H](CO)N*; Aib = CC(C)(N)C(=O)O

`C=C[C@@H]1C[C@H](C)C[C@H](C)[C@H]1c1c(O)ccn(O[C@@H]2C(C(=O)OC)=C[C@@H](O)[C@@H](O)[C@H]2O)c1=O`: the MIC against Klebsiella aerogenes was over 128 µM; in test [1], 128 µM (≈ 57.5 µg/mL); with Staphylococcus aureus [2], 128 µM (≈ 57.5 µg/mL); in the test on Vibrio cholerae it was 128 µM (≈ 57.5 µg/mL); in the test with Pseudomonas aeruginosa, over 128 µM; in the test with Listeria ivanovii, 16 µM (≈ 7.19 µg/mL). The MIC against Escherichia coli was 128 µM (≈ 57.5 µg/mL); against Klebsiella pneumoniae, over 128 µM; in test [3], 128 µM (≈ 57.5 µg/mL); with Shigella sonnei, 128 µM (≈ 57.5 µg/mL); in [4], 128 µM (≈ 57.5 µg/mL); in the test with Staphylococcus aureus [5] it was 128 µM (≈ 57.5 µg/mL). The MIC in the test with Bacillus subtilis was 128 µM (≈ 57.5 µg/mL); in the test with Enterococcus faecium it was 128 µM (≈ 57.5 µg/mL); with Enterococcus faecalis, 128 µM (≈ 57.5 µg/mL); in the test with Brucella anthropi it was 128 µM (≈ 57.5 µg/mL); in test [6] it was over 250 µM; in test [7] it was 250 µM (≈ 112 µg/mL). In the test on Salmonella enterica, this compound had an MIC of 128 µM (≈ 57.5 µg/mL).

Regarding `CCCCCCCCCC(=O)NC(C)(C)C(=O)N1CCC[C@H]1C(=O)N[C@@H](Cc1ccccc1)C(=O)NC(C)(C)C(=O)N[C@@H](CCC(N)=O)C(=O)N[C@@H](CCC(N)=O)C(=O)NC(C)(C)C(=O)NC(C)(C)C(=O)N[C@@H](CCC(N)=O)C(=O)N[C@@H](CC(C)C)C(=O)N[C@H](CO)C(C)C` (Decanoyl-[Aib]PF[Aib]QQ[Aib][Aib]QL-Valol), the MIC against Klebsiella aerogenes was over 128 µM; in test [1], over 128 µM; in the test with Staphylococcus aureus [2] it was 16 µM (≈ 21.4 µg/mL); against Vibrio cholerae, over 128 µM; against Pseudomonas aeruginosa, over 128 µM; with Listeria ivanovii, 8 µM (≈ 10.7 µg/mL). Also, the minimal inhibitory concentration (MIC) against Escherichia coli was over 128 µM; against Klebsiella pneumoniae, over 128 µM; in [3], over 128 µM; against Shigella sonnei, over 128 µM; in test [4], over 128 µM; in the test with Staphylococcus aureus [5], 8 µM (≈ 10.7 µg/mL). In addition, the MIC in the test with Bacillus subtilis was 8 µM (≈ 10.7 µg/mL); against Enterococcus faecium it was 32 µM (≈ 42.9 µg/mL); with Enterococcus faecalis, 32 µM (≈ 42.9 µg/mL); in the test on Brucella anthropi, over 128 µM; in test [6] it was 80 µM (≈ 107 µg/mL); in [7] it was 20 µM (≈ 26.8 µg/mL). This compound also came in with an MIC against Salmonella enterica of over 128 µM.

For the compound `CCCCCCCCCC(=O)NC(C)(C)C(=O)N1C[C@@H](C)C[C@H]1C(=O)N[C@@H](Cc1ccccc1)C(=O)NC(C)(C)C(=O)N[C@@H](CCC(N)=O)C(=O)N[C@@H](CCC(N)=O)C(=O)NC(C)(C)C(=O)NC(C)(C)C(=O)N[C@@H](CCC(N)=O)C(=O)N[C@@H](CC(C)C)C(=O)N[C@H](CO)C(C)C` (Decanoyl-[Aib][Pro(4S-Me)]F[Aib]QQ[Aib][Aib]QL-Valol), the MIC in the test on Klebsiella aerogenes was over 128 µM; in [1], over 128 µM; with Staphylococcus aureus [2], 16 µM (≈ 21.7 µg/mL); against Vibrio cholerae, over 128 µM; against Pseudomonas aeruginosa, over 128 µM; with Listeria ivanovii, 8 µM (≈ 10.8 µg/mL). Also, the MIC in the test on Escherichia coli was over 128 µM; in the test on Klebsiella pneumoniae, over 128 µM; in test [3], over 128 µM; in the test with Shigella sonnei, over 128 µM; in [4], over 128 µM; against Staphylococcus aureus [5], 4 µM (≈ 5.41 µg/mL). The minimal inhibitory concentration (MIC) against Bacillus subtilis is 4 µM (≈ 5.41 µg/mL); against Enterococcus faecium it was 16 µM (≈ 21.7 µg/mL); in the test on Enterococcus faecalis it was 16 µM (≈ 21.7 µg/mL); in the test with Brucella anthropi, over 128 µM; in test [6], 80 µM (≈ 108 µg/mL); in test [7], 40 µM (≈ 54.1 µg/mL). Besides, the MIC in the test on Salmonella enterica is over 128 µM.

`O=C(O)c1cn(C2CC2)c2cc(N3CCNCC3)c(F)cc2c1=O` [CIPROFLOXACIN]: the MIC was 2.83 µM (≈ 0.938 µg/mL) in the test with Klebsiella aerogenes; 0.14 µM (≈ 0.0464 µg/mL) in test [1]; 64 µM (≈ 21.2 µg/mL) in the test on Staphylococcus aureus [2]; 0.02 µM (≈ 0.00663 µg/mL) with Vibrio cholerae; 0.5 µM (≈ 0.166 µg/mL) against Pseudomonas aeruginosa; 8 µM (≈ 2.65 µg/mL) against Listeria ivanovii. For the same compound, the MIC against Escherichia coli worked out at 0.17 µM (≈ 0.0563 µg/mL); in the test with Klebsiella pneumoniae, 2 µM (≈ 0.663 µg/mL); in test [3], 0.13 µM (≈ 0.0431 µg/mL); against Shigella sonnei, 0.08 µM (≈ 0.0265 µg/mL); in [4], 1.33 µM (≈ 0.441 µg/mL); against Bacillus subtilis, 0.38 µM (≈ 0.126 µg/mL). Also, the MIC against Enterococcus faecium stood at 0.67 µM (≈ 0.222 µg/mL); against Enterococcus faecalis it was 1 µM (≈ 0.331 µg/mL); in the test with Brucella anthropi it was 0.83 µM (≈ 0.275 µg/mL); in test [6], 3.8 µM (≈ 1.26 µg/mL); in the test on Salmonella enterica, 0.05 µM (≈ 0.0166 µg/mL).

`CO[C@H]1/C=C/O[C@@]2(C)Oc3c(C)c(O)c4c(O)c(c(/C=N/N5CCN(C)CC5)c(O)c4c3C2=O)NC(=O)/C(C)=C\C=C\[C@H](C)[C@H](O)[C@@H](C)[C@@H](O)[C@@H](C)[C@H](OC(C)=O)[C@@H]1C` [RIFAMPIN]: the MIC in the test with Klebsiella aerogenes was 8 µM (≈ 6.58 µg/mL); in test [1], 10.7 µM (≈ 8.81 µg/mL); in the test on Staphylococcus aureus [2], 2 µM (≈ 1.65 µg/mL); against Vibrio cholerae it was over 128 µM; in the test with Pseudomonas aeruginosa, 53.3 µM (≈ 43.9 µg/mL); against Listeria ivanovii it was 0.02 µM (≈ 0.0165 µg/mL). The MIC against Escherichia coli worked out at 4 µM (≈ 3.29 µg/mL); against Klebsiella pneumoniae it was 16 µM (≈ 13.2 µg/mL); in [3] it was 8 µM (≈ 6.58 µg/mL); against Shigella sonnei, 1.67 µM (≈ 1.37 µg/mL); in test [4], 0.02 µM (≈ 0.0165 µg/mL); in the test on Staphylococcus aureus [5], 0.01 µM (≈ 0.00823 µg/mL). Besides, the MIC came out at 0.19 µM (≈ 0.156 µg/mL) in the test with Bacillus subtilis; 21.3 µM (≈ 17.5 µg/mL) in the test with Enterococcus faecium; 1 µM (≈ 0.823 µg/mL) against Enterococcus faecalis; 4 µM (≈ 3.29 µg/mL) against Brucella anthropi; 0.062 µM (≈ 0.051 µg/mL) in [7]; 2 µM (≈ 1.65 µg/mL) against Salmonella enterica.
